# Experimental data published in PubChem BioAssay (NCI).
#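 Cells were grown in 96-well plates and exposed to each compound for 48 hours at five concentrations; endpoints were interpolated linearly between bracketing concentrations, or set to the highest concentration if not reached. TGI denotes the concentration required for complete inhibition of growth.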
# How the values were obtained:
# Test in all cases: NCI anticancer screen, dose series, 48 h
# [1] = tested on: 786-0 renal
# [2] = tested on: A498 renal
# [3] = tested on: A549 NSCLC
# [4] = tested on: ACHN renal
# [5] = tested on: BT-549 breast
# [6] = tested on: CAKI-1 renal
# [7] = tested on: CCRF-CEM leukemia
# [8] = tested on: COLO 205 colon
# [9] = tested on: DU-145 prostate
# [10] = tested on: EKVX NSCLC
# [11] = tested on: HCC-2998 colon
# [12] = tested on: HCT-116 colon
# [13] = tested on: HCT-15 colon
# [14] = tested on: HL-60(TB) leukemia
# [15] = tested on: HOP-62 NSCLC
# [16] = tested on: HOP-92 NSCLC
# [17] = tested on: HS 578T breast
# [18] = tested on: HT29 colon
# [19] = tested on: IGROV1 ovarian
# [20] = tested on: K-562 leukemia
# [21] = tested on: KM12 colon
# [22] = tested on: LOX IMVI melanoma
# [23] = tested on: M14 melanoma
# [24] = tested on: MALME-3M melanoma
# [25] = tested on: MCF7 breast
# [26] = tested on: MDA-MB-231 breast
# [27] = tested on: MDA-MB-435
# [28] = tested on: MDA-N
# [29] = tested on: MOLT-4 leukemia
# [30] = tested on: NCI-H226 lung
# [31] = tested on: NCI-H23 lung
# [32] = tested on: NCI-H460 lung
# [33] = tested on: NCI-H522 lung
# [34] = tested on: NCI/ADR-RES ovarian
# [35] = tested on: OVCAR-3 ovarian
# [36] = tested on: OVCAR-4 ovarian
# [37] = tested on: OVCAR-5 ovarian
# [38] = tested on: OVCAR-8 ovarian
# [39] = tested on: PC-3 prostate
# [40] = tested on: RPMI-8226 leukemia
# [41] = tested on: RXF 393 renal
# [42] = tested on: SF-268 CNS
# [43] = tested on: SF-295 CNS
# [44] = tested on: SF-539 CNS
# [45] = tested on: SK-MEL-2 melanoma
# [46] = tested on: SK-MEL-28 melanoma
# [47] = tested on: SK-MEL-5 melanoma
# [48] = tested on: SK-OV-3 ovarian
# [49] = tested on: SN12C renal
# [50] = tested on: SNB-19 CNS
# [51] = tested on: SNB-75 CNS
# [52] = tested on: SR leukemia
# [53] = tested on: SW-620 colon
# [54] = tested on: T-47D breast
# [55] = tested on: TK-10 renal
# [56] = tested on: U251 CNS
# [57] = tested on: UACC-257 melanoma
# [58] = tested on: UACC-62 melanoma
# [59] = tested on: UO-31 renal
structure (smiles),measurement,setting,value
Cc1noc(C)c1-n1nc2ccc3nonc3c2n1,TGI,[1],> 93 µM
same,TGI,[2],66.8 µM
same,TGI,[3],> 100 µM
same,TGI,[4],> 100 µM
same,TGI,[5],> 100 µM
same,TGI,[6],> 100 µM
same,TGI,[7],> 100 µM
same,TGI,[8],> 100 µM
same,TGI,[9],> 100 µM
same,TGI,[10],> 92.4 µM
same,TGI,[11],> 100 µM
same,TGI,[12],> 100 µM
same,TGI,[13],> 100 µM
same,TGI,[14],> 100 µM
same,TGI,[15],59.7 µM
same,TGI,[16],> 86.4 µM
same,TGI,[17],> 88.1 µM
same,TGI,[18],> 100 µM
same,TGI,[19],> 100 µM
same,TGI,[20],> 100 µM
same,TGI,[21],> 100 µM
same,TGI,[22],> 100 µM
same,TGI,[23],> 100 µM
same,TGI,[24],> 100 µM
same,TGI,[25],> 100 µM
same,TGI,[26],> 100 µM
same,TGI,[27],> 100 µM
same,TGI,[28],> 100 µM
same,TGI,[29],> 100 µM
same,TGI,[30],> 100 µM
same,TGI,[31],> 100 µM
same,TGI,[32],> 100 µM
same,TGI,[33],> 100 µM
same,TGI,[34],> 100 µM
same,TGI,[35],> 100 µM
same,TGI,[36],> 100 µM
same,TGI,[37],> 100 µM
same,TGI,[38],> 100 µM
same,TGI,[39],> 100 µM
same,TGI,[40],> 100 µM
same,TGI,[41],51.5 µM
same,TGI,[42],> 100 µM
same,TGI,[43],98.6 µM
same,TGI,[44],> 71.4 µM
same,TGI,[45],> 100 µM
same,TGI,[46],> 100 µM
same,TGI,[47],> 100 µM
same,TGI,[48],> 73.4 µM
same,TGI,[49],> 100 µM
same,TGI,[50],> 76.4 µM
same,TGI,[51],> 82.4 µM
same,TGI,[52],> 100 µM
same,TGI,[53],> 100 µM
same,TGI,[54],> 100 µM
same,TGI,[55],> 82 µM
same,TGI,[56],> 75.4 µM
same,TGI,[57],> 100 µM
same,TGI,[58],> 100 µM
same,TGI,[59],> 100 µM
Cc1ccc(NCCN(C)C)c2c(=O)c3cc(O)ccc3oc12,TGI,[1],18.3 µM
same,TGI,[2],28.2 µM
same,TGI,[3],20.9 µM
same,TGI,[4],17.6 µM
same,TGI,[5],30.6 µM
same,TGI,[6],22.9 µM
same,TGI,[7],16 µM
same,TGI,[8],24.2 µM
same,TGI,[9],28.3 µM
same,TGI,[10],29.2 µM
same,TGI,[11],24.3 µM
same,TGI,[12],17.2 µM
same,TGI,[13],21.2 µM
same,TGI,[14],19.4 µM
same,TGI,[15],23.3 µM
same,TGI,[16],23.4 µM
same,TGI,[17],19.9 µM
same,TGI,[18],23.7 µM
same,TGI,[19],24.9 µM
same,TGI,[20],12.3 µM
same,TGI,[21],25 µM
same,TGI,[22],22.2 µM
same,TGI,[23],25.3 µM
same,TGI,[24],27.3 µM
same,TGI,[25],19.6 µM
same,TGI,[26],22.2 µM
same,TGI,[27],24.4 µM
same,TGI,[28],23 µM
same,TGI,[29],11.7 µM
same,TGI,[30],29.5 µM
same,TGI,[31],25.6 µM
same,TGI,[32],15 µM
same,TGI,[33],21.7 µM
same,TGI,[34],24.3 µM
same,TGI,[35],30.8 µM
same,TGI,[36],31.3 µM
same,TGI,[37],29.1 µM
same,TGI,[38],19.7 µM
same,TGI,[39],24.2 µM
same,TGI,[40],34.3 µM
same,TGI,[41],24.4 µM
same,TGI,[42],17.7 µM
same,TGI,[43],23 µM
same,TGI,[44],20.5 µM
same,TGI,[45],35.4 µM
same,TGI,[46],28.4 µM
same,TGI,[47],24 µM
same,TGI,[48],26.4 µM
same,TGI,[49],20.2 µM
same,TGI,[50],23.7 µM
same,TGI,[51],16 µM
same,TGI,[52],3.35 µM
same,TGI,[53],17 µM
same,TGI,[54],31.5 µM
same,TGI,[55],27.9 µM
same,TGI,[56],21 µM
same,TGI,[57],32.7 µM
same,TGI,[58],23 µM
same,TGI,[59],22.1 µM
